Laboratory results from publication PMC7555839 (Frontiers in Microbiology, 2020).
Read-outs that look alike come from different tables or passages of the source.

Columns and labels:
[1] = system: Salmonella typhimurium TA98
[2] = system: Staphylococcus epidermidis RP62a; experiment: Broth microdilution (MIC/MBC); format: cell-based; settings: human clinical isolate
Proteus vulgaris JEO1 = experiment: Broth microdilution (MIC/MBC); format: cell-based; settings: JEO1, veterinary clinical isolate
[3] = system: Enterococcus faecalis JEO72G7B; experiment: Broth microdilution (MIC/MBC); format: cell-based; settings: veterinary clinical isolate
MRSA strain 43484 = experiment: Mouse skin (wound) infection model, topical treatment; format: in vivo, Staphylococcus aureus; settings: 50 μl topical twice daily for 3 days, female mice, skin biopsies day 4
Protocol: To study the effect of topical treatment with JBC 1847 against MRSA strain 43484, a mouse skin infection model was established. Initially, female mice (18–22 g) were orally treated with 45 μl nurofen (20 mg ibuprofen/ml) and anaesthetized with 0.15 ml s.c. of Zoletil mix. The fur was removed from an area of 6 cm^2 and a part of epidermis was subsequently scraped off to obtain a 1 cm^2 superficial skin lesion. The mice were inoculated with 10 μl of a saline solution containing approximately 10^7 CFU. The day after inoculation, topical treatment with 50 μl test compound was initiated and performed twice daily for a 3-day period. Fucidic acid was included as a positive control, and vehicle treatment was included as a negative control. Through the entire study, the behavior and clinical signs of the mice were carefully observed. Mice were killed the day after last treatment, and skin biopsies from the wounded area were collected. The skin samples were homogenized using a Dispomixer and serially diluted in saline/Triton X. To determine the bacterial concentration, 20 μl spots were transferred to MRSA Brilliance agar plates (Oxoid, Thermo Scientific, Roskilde, Denmark) and incubated 20–48 h at 35°C.
Data were statically analyzed and visualized using RStudio v3.6.3 ([R Core Team, 2020]) and Microsoft excel. In general, the values reflecting the bacterial concentration (CFU/ml) were transformed into a logarithmic scale. In the growth and viability assay, the mean numbers of the bacterial concentrations from the triplicates were plotted against time and standard deviations shown as error bars. To investigate differences in bacterial concentration between treatment groups in the in vivo assay, multiple group comparisons were performed using ANOVA and P < 0.05 considered significant. The data was visualized in a standard box plot.

[4] = system: Escherichia coli E2 (in house strain); experiment: Broth microdilution (MIC/MBC); format: cell-based; settings: E2, human clinical isolate
[5] = system: S. aureus CC398 (in house strain); experiment: Broth microdilution (MIC/MBC); format: cell-based; settings: Staphylococcus aureus; CC398, veterinary clinical isolate
[6] = system: S. epidermidis 105 (in house strain); experiment: Broth microdilution (MIC/MBC); format: cell-based; settings: Staphylococcus epidermidis; strain 105, human clinical isolate
[7] = system: Salmonella typhimurium TA100
[8] = system: Escherichia coli mutant [wp2 (pKM101)]
[9] = system: E. coli APEC O2 (in house strain); experiment: Broth microdilution (MIC/MBC); format: cell-based; settings: Escherichia coli; APEC O2, veterinary clinical isolate
[10] = system: three Gram-negative pathogenic bacteria; experiment: Broth microdilution, summary over Gram-negative isolates; format: cell-based
[11] = system: Enterococcus faecium ATCC 700221; experiment: Broth microdilution (MIC/MBC); format: cell-based; settings: ATCC700221, ATCC 700221, human clinical isolate
S. aureus ATCC BAA-1556 = experiment: Broth microdilution with 20% human serum; format: cell-based, Staphylococcus aureus
Protocol: (§1) In addition, whether serum proteins affected the activity of JBC 1847 against three S. aureus strains (USA300 JE2, ATCC BAA-1556 and CC398 in house strain) was investigated. Broth microdilution assays analog to previously described, with a 20% human serum (Sigma-Aldrich, Brøndby, Denmark) concentration were carried for three S. aureus strains (Table 1). MIC and MBC values were determined as previously described.

[12] = system: S. aureus CC398 in house strain; experiment: Broth microdilution with 20% human serum; format: cell-based, Staphylococcus aureus
Protocol: as §1

S. aureus USA300 JE2 = experiment: Broth microdilution with 20% human serum; format: cell-based, Staphylococcus aureus
Protocol: as §1

[13] = system: Salmonella typhimurium TA1537; experiment: Ames test; settings: for Mutagenicity ratio (MR): TA1537, 4 μg/well
[14] = 20% human serum vs assay without serum
[15] = Staphylococcus aureus, ATCCBAA1556, 20% human serum
[16] = Staphylococcus aureus, 20% human serum

With `CC(C)=CCCC(C)CC[N+](C)(C)CCCN1c2ccccc2Sc2ccccc21` (stereo not drawn) [JBC 1847] the “Mean number of reverse mutated colonies” value ([1]; TA98, + S9, 1.5 μg/well) was 11.00 ± 2.65, the “Mean number of reverse mutated colonies” value ([1]; TA98, + S9, 4 μg/well) was 11.33 ± 3.79 and the “Mean number of reverse mutated colonies” value ([1]; TA98, + S9, 10 μg/well) was 13.67 ± 4.04. The “Mean number of reverse mutated colonies” value ([1]; TA98, + S9, 64 μg/well) was 0.0, the “Mean number of reverse mutated colonies” value ([1]; TA98, −S9, 1.5 μg/well) was 13.00 ± 2.00 and the “Mean number of reverse mutated colonies” value ([1]; TA98, −S9, 4 μg/well) was 9.00 ± 2.00. For the same compound, the “Mean number of reverse mutated colonies” value ([1]; TA98, −S9, 10 μg/well) was 9.67 ± 3.51, the “Mean number of reverse mutated colonies” value ([1]; TA98, −S9, 25 μg/well) was 0.0 and the “Mean number of reverse mutated colonies” value ([1]; TA98, −S9, 64 μg/well) was 0.0. It also gave an MIC [2] of 0.5 µg/mL, an MBC (Proteus vulgaris JEO1) of 32 µg/mL and an MIC (Proteus vulgaris JEO1) of 32 µg/mL. The MBC [3] was 1 µg/mL, the MIC [3] was 1 µg/mL and the “Reduction of bacterial counts compared with the vehicle” value (MRSA strain 43484; 1% solution) was 3.0 log10 CFU. For the same compound, the “Reduction of bacterial counts compared with the vehicle” value (MRSA strain 43484; 2%) was 3.7 log10 CFU, the MBC [4] was 8 µg/mL and the MIC [4] was 8 µg/mL. The MBC [5] was 0.5 µg/mL, the MIC [5] was 0.5 µg/mL and the MIC [6] was 0.5 µg/mL. The “Mean number of reverse mutated colonies” value ([7]; TA100, + S9, 1.5 μg/well) was 21.33 ± 2.08, the “Mean number of reverse mutated colonies” value ([7]; TA100, + S9, 4 μg/well) was 19.00 ± 5.29 and the “Mean number of reverse mutated colonies” value ([7]; TA100, + S9, 10 μg/well) was 13.67 ± 1.53. The “Mean number of reverse mutated colonies” value ([7]; TA100, + S9, 64 μg/well) was 0.0, the “Mean number of reverse mutated colonies” value ([7]; TA100, −S9, 1.5 μg/well) was 24.33 ± 3.21 and the “Mean number of reverse mutated colonies” value ([7]; TA100, −S9, 4 μg/well) was 26.67 ± 2.08. The “Mean number of reverse mutated colonies” value ([7]; TA100, −S9, 10 μg/well) was 18.00 ± 5.57, the “Mean number of reverse mutated colonies” value ([7]; TA100, −S9, 25 μg/well) was 0.0 and the “Mean number of reverse mutated colonies” value ([7]; TA100, −S9, 64 μg/well) was 0.0. For the same compound, the “Mean number of reverse mutated colonies” value ([8]; + S9, 1.5 μg/well) was 51.33 ± 12.86, the “Mean number of reverse mutated colonies” value ([8]; + S9, 4 μg/well) was 40.67 ± 9.07 and the “Mean number of reverse mutated colonies” value ([8]; + S9, 10 μg/well) was 40.67 ± 13.32. For the same compound, the “Mean number of reverse mutated colonies” value ([8]; + S9, 25 μg/well) was 9.67 ± 2.08, the “Mean number of reverse mutated colonies” value ([8]; + S9, 64 μg/well) was 0.0 and the “Mean number of reverse mutated colonies” value ([8]; −S9, 1.5 μg/well) was 33.00 ± 2.65. The “Mean number of reverse mutated colonies” value ([8]; −S9, 4 μg/well) was 39.33 ± 5.69, the “Mean number of reverse mutated colonies” value ([8]; −S9, 10 μg/well) was 17.33 ± 7.09 and the “Mean number of reverse mutated colonies” value ([8]; −S9, 64 μg/well) was 0.0. The MBC [9] was 16 µg/mL, the MIC [9] was 16 µg/mL and the “MIC values (range over isolates)” value [10] was 8 to 32 µg/mL. The MBC [11] was 2 to 4 µg/mL, the MIC [11] was 2 µg/mL and the “Increase in MBC with human serum” value (S. aureus ATCC BAA-1556; [14]) was 128 fold. The “Increase in MIC with human serum” value (S. aureus ATCC BAA-1556; [14]) was 128 fold, the MBC (S. aureus ATCC BAA-1556; [15]) was 64 µg/mL and the MIC (S. aureus ATCC BAA-1556; [15]) was 64 µg/mL. For the same compound, the “Increase in MBC with human serum” value [12, 14] was 128 fold, the “Increase in MIC with human serum” value [12, 14] was 128 fold and the MBC [12, 16] was 64 µg/mL. The MIC [12, 16] was 64 µg/mL, the “Increase in MBC with human serum” value (S. aureus USA300 JE2; [14]) was 128 fold and the “Increase in MIC with human serum” value (S. aureus USA300 JE2; [14]) was 128 fold. For the same compound, the MBC (S. aureus USA300 JE2; [16]) was 64 µg/mL, the MIC (S. aureus USA300 JE2; [16]) was 64 µg/mL and the “Mutagenicity ratio (MR)” value ([13]; absence of S9) was “above 2”. The “Mutagenicity ratio (MR)” value ([13]; presence of S9) was “above 2”, the “Mean number of reverse mutated colonies” value ([13]; TA1537, + S9, 1.5 μg/well) was 2.00 ± 2.65 and the “Mean number of reverse mutated colonies” value ([13]; TA1537, + S9, 10 μg/well) was 0.33 ± 0.58. The “Mean number of reverse mutated colonies” value ([13]; TA1537, + S9, 64 μg/well) was 0.0, the “Mean number of reverse mutated colonies” value ([13]; TA1537, −S9, 1.5 μg/well) was 5.00 ± 1.00 and the “Mean number of reverse mutated colonies” value ([13]; TA1537, −S9, 64 μg/well) was 0.0.
